This is an account of results in patent publication US20030130203A1, “Medicament for combating respiratory depression” (priority 2000, published 2003).

The data set has as its system awake male Sprague Dawley rats. As to the kind of experiment: Measurement of respiratory rate on the awake rat. It is filed as in vivo. To be noted: i.v., measured immediately and up to 15 min. On the procedure:
Measurement of Respiratory Rate on the Awake Rat
To study the respiratory rate, awake male Sprague Dawley rats (Janvier, France) weighing 190 to 315 g were immobilized in Plexiglas tubes. For intravenous administration of the medicament solutions, the rats were each provided with a catheter in the caudal vein. The respiratory rate of the rats was measured via a water-filled balloon catheter located laterally between the rat and the Plexiglas tube. The balloon catheter was connected to a pressure sensor and a high-speed chart recorder (Gould, Dietzenbach).
After an equilibration period of 30 minutes, a baseline value for the respiratory rate was determined. The appropriate active ingredient solution was then administered intravenously and the respiratory rate was measured immediately and after 1, 2, 5, 10 and 15 minutes. Each rat received a single administration per day.

`C[C@H]1SC[C@@H](C(=O)N[C@H](Cc2c[nH]cn2)C(=O)N2CCC[C@H]2C(N)=O)NC1=O` [Example 1, montirelin]: the respiratory rate entry (0.215 mg/kg montirelin together with 10 mg/kg morphine in 0.9% saline) is given as “no decrease in respiratory rate”. Consider `CN1CC[C@]23c4c5ccc(O)c4O[C@H]2[C@@H](O)C=C[C@H]3[C@H]1C5` [Comparative Example 1, morphine], for which, where the note is “10 mg/kg morphine only in 0.9% saline”, the respiratory rate result was “marked decrease in respiratory rate”.
